According to US9573966B2, “Anti-cancer activity of novel bicyclic heterocycles” (Katholieke Universiteit Leuven, K.U.Leuven R&D, priority 2010, dated 2017):

Tests used:
[1] = test system: HL-60 cells; assay: Inhibition of HL-60 leukemic cell line proliferation (WST-1); type: cell-based, human; details: cytotoxicity on HL-60 cells, two days incubation, WST-1 read-out
Procedure: (§1) HL-60 cell line, a human promyelocytic leukemia (ATCC; CCL-240) cell line, was grown in RPMI-1640 medium (Lonza, Belgium) supplemented with 10% fetal calf serum (Hyclone, US) and antibiotics. Exponential growing phase cells were seed in flat bottom 96-well microplates (TTP, Switzerland) at 50000 cells per well in 220 μl of medium with compounds (in different concentrations) and incubated for two days at 37° C., 5% CO2. After incubation, 100 μl of supernatant were removed and 10 μl of WST-1 (Roche, Switzerland) were added. After 2 hour incubation at 37° C., 5% CO2, optical densities were measured at 450 nm. Proliferation is calculated with respect of control points (no compound and treatment with Triton X100 to have maximum and minimum proliferation data). The IC50 was determined from a graph with at least four points, each derived from the mean of at least 2 experiments. […] The results are shown in Table 2 for a number of compounds.

[2] = test system: HSB-2 cells; assay: Inhibition of HSB-2 leukemic cell line proliferation (WST-1); type: cell-based, human; details: cytotoxicity on HSB-2 cells, two days incubation, WST-1 read-out
Procedure: as §1, with “HSB2 cell” for “HL-60 cell”, “human acute lymphoblastic” for “human promyelocytic”, “(ATCC; CCL-120.1)” for “(ATCC; CCL-240)”, “Table 1” for “Table 2”

Cc1cccc(NC(=O)N2CCN(c3nc(N)nc4sc(-c5ccccc5)cc34)CC2)c1 [Example 330, 4-(2-amino-6-phenylthieno[2,3-d]pyrimidin-4-yl)-N-m-tolylpiperazine-1-carboxamide]
IC50 ([1]; Homo sapiens, 48 h): > 10 µM | IC50 ([2]; Homo sapiens, HSB2, 48 h): 7.61 µM

Nc1nc(N2CCN(C(=O)COc3ccc(F)cc3)CC2)c2nc(-c3ccco3)sc2n1 [Example 209, 1-(4-(5-amino-2-(furan-2-yl)thiazolo[5,4-d]pyrimidin-7-yl)piperazin-1-yl)-2-(4-fluorophenoxy)ethanone]
IC50 ([1]; Homo sapiens, 48 h): 0.57 µM | IC50 ([2]; Homo sapiens, HSB2, 48 h): 0.51 µM

Nc1nc(N2CCN(C(=O)COc3ccc(Cl)cc3)CC2)c2nc(-c3ccc(C(F)(F)F)cc3)[nH]c2n1 [Example 394, 1-(4-(2-amino-8-(4-(trifluoromethyl)phenyl)-9H-purin-6-yl)piperazin-1-yl)-2-(4-chlorophenoxy)ethanone]
IC50 ([1]; Homo sapiens, 48 h): 8.78 µM | IC50 ([2]; Homo sapiens, HSB2, 48 h): 7.37 µM

Nc1nc(N2CCN(C(=O)COc3ccccc3)CC2)c2nc(-c3ccc(F)cc3)[nH]c2n1 [Example 401, 1-(4-(2-amino-8-(4-fluorophenyl)-9H-purin-6-yl)piperazin-1-yl)-2-phenoxyethanone]
IC50 ([1]; Homo sapiens, 48 h): > 10 µM | IC50 ([2]; Homo sapiens, HSB2, 48 h): > 10 µM

Nc1nc(N2CCN(C(=O)COc3ccc(OC(F)(F)F)cc3)CC2)c2nc(-c3cccnc3)sc2n1 [Example 273, 1-(4-(5-amino-2-(pyridin-3-yl)thiazolo[5,4-d]pyrimidin-7-yl)piperazin-1-yl)-2-(4-trifluoromethoxyphenoxy)ethanone]
IC50 ([1]; Homo sapiens, 48 h): 4.84 µM | IC50 ([2]; Homo sapiens, HSB2, 48 h): 0.81 µM

Nc1nc(N2CCN(C(=O)COc3ccccc3)CC2)c2cc(-c3ccccc3)sc2n1 [Example 332, 1-(4-(2-amino-6-phenylthieno[2,3d]pyrimidin-4-yl)piperazin-1-yl)-2-phenoxyethanone]
IC50 [1]: > 10 µM | IC50 [2]: 5.5 µM

CN(C(=O)CN1CCN(c2nc(N)nc3oc(CCc4ccc(F)cc4)nc23)CC1)c1ccccc1 [Example 198, 5-amino-2-[2-(4-fluorophenyl)ethyl]-7-(4-[(methylphenyl-carbamoyl)methyl]piperazin-1-yl)-oxazolo[5,4-d]pyrimidine]
IC50 ([1]; Homo sapiens, 48 h): > 10 µM | IC50 ([2]; Homo sapiens, HSB2, 48 h): > 10 µM

Cn1c(-c2ccc(F)cc2)nc2c(N3CCN(C(=O)COc4ccc(Cl)cc4)CC3)nc(N)nc21 [Example 430, 1-(4-(2-amino-8-(4-fluorophenyl)-9-methyl-9H-purin-6-yl)piperazin-1-yl)-2-(4-chlorophenoxy)ethanone]
IC50 ([1]; Homo sapiens, 48 h): 0.99 µM | IC50 ([2]; Homo sapiens, HSB2, 48 h): 3.5 µM

Cc1cccc(OCC(=O)N2CCN(c3nc(N)nc4sc(-c5ccco5)nc34)CC2)c1 [Example 210, 1-(4-(5-amino-2-(furan-2-yl)thiazolo[5,4-d]pyrimidin-7-yl)piperazin-1-yl)-2-(m-tolyloxy)ethanone]
IC50 ([1]; Homo sapiens, 48 h): 0.39 µM | IC50 ([2]; Homo sapiens, HSB2, 48 h): 0.48 µM

Nc1nc(N2CCN(C(=O)COc3ccc(Cl)cc3)CC2)c2nc(CCc3ccccc3)sc2n1 [Example 118, 5-amino-7-[4-(4-chlorophenoxyacetyl)piperazin-1-yl]-2-(2-phenylethyl)thiazolo[5,4-d]pyrimidine]
IC50 ([1]; Homo sapiens, 48 h): 9.97 µM | IC50 ([2]; Homo sapiens, HSB2, 48 h): 4.53 µM

N#Cc1ccc(NC(=O)N2CCN(c3nc(N)nc4sc(-c5cccnc5)nc34)CC2)cc1 [Example 279, 4-(5-amino-2-(pyridin-3-yl)thiazolo[5,4-d]pyrimidin-7-yl)-N-(4-cyanophenyl)piperazine-1-carboxamide]
IC50 ([1]; Homo sapiens, 48 h): 0.88 µM | IC50 ([2]; Homo sapiens, HSB2, 48 h): 0.68 µM

COCc1nc2c(N3CCN(C(=O)COc4ccc(Cl)cc4)CC3)nc(N)nc2o1 [Example 186, 5-amino-7-[4-(4-chlorophenoxyacetyl)piperazin-1-yl]-2-methoxylmethyloxazolo[5,4-d]pyrimidine]
IC50 ([1]; Homo sapiens, 48 h): > 10 µM | IC50 ([2]; Homo sapiens, HSB2, 48 h): > 10 µM

Cc1cccc(NC(=O)N2CCCN(c3nc(N)nc4[nH]c(-c5ccc(F)cc5)nc34)CC2)c1 [Example 422, 4-(2-amino-8-(4-fluorophenyl)-9H-purin-6-yl)-N-m-tolyl-1,4-diazepane-1-carboxamide]
IC50 ([1]; Homo sapiens, 48 h): > 10 µM | IC50 ([2]; Homo sapiens, HSB2, 48 h): > 10 µM

COc1ccccc1NC(=O)N1CCN(c2nc(N)nc3sc(-c4ccc(F)cc4)nc23)CC1 [Example 219, 4-(5-amino-2-(4-fluorophenyl)thiazolo[5,4-d]pyrimidin-7-yl)-N-(2-methoxyphenyl)piperazine-1-carboxamide]
IC50 ([1]; Homo sapiens, 48 h): 6.19 µM | IC50 ([2]; Homo sapiens, HSB2, 48 h): 5.83 µM

Nc1nc(N2CCN(C(=O)COc3ccc(Cl)cc3)CC2)c2nc(-c3ccc(Cl)c(Cl)c3)sc2n1 [Example 116, 5-amino-7-[4-(4-chlorophenoxyacetyl)piperazin-1-yl]-2-(3,4-dichlorophenyl)thiazolo[5,4-d]pyrimidine]
IC50 ([1]; Homo sapiens, 48 h): 8.59 µM | IC50 ([2]; Homo sapiens, HSB2, 48 h): 6.01 µM

COc1ccc(OCC(=O)N2CCN(c3nc(N)nc4sc(-c5ccc(Cl)cc5)nc34)CC2)cc1 [Example 270, 1-(4-(5-amino-2-(4-chlorophenyl)thiazolo[5,4-d]pyrimidin-7-yl)piperazin-1-yl)-2-(4-methoxyphenoxy)ethanone]
IC50 ([1]; Homo sapiens, 48 h): 0.45 µM | IC50 ([2]; Homo sapiens, HSB2, 48 h): 0.18 µM

Nc1nc(N2CCN(C(=O)COc3ccc(Cl)cc3)CC2)c2nc(-c3cccc(Cl)c3)[nH]c2n1 [Example 393, 1-(4-(2-amino-8-(3-chlorophenyl)-9H-purin-6-yl)piperazin-1-yl)-2-(4-chlorophenoxy)ethanone]
IC50 ([1]; Homo sapiens, 48 h): 9.18 µM | IC50 ([2]; Homo sapiens, HSB2, 48 h): 1.38 µM

Nc1nc(N2CCN(C(=O)COc3cccc([N+](=O)[O-])c3)CC2)c2nc(-c3ccc(F)cc3)sc2n1 [Example 129, 5-amino-2-(4-fluorophenyl)-7-(4-[2-(3-nitrophenoxy)acetyl]-piperazin-1-yl)-thiazolo[5,4-d]pyrimidine]
IC50 ([1]; Homo sapiens, 48 h): 9.74 µM | IC50 ([2]; Homo sapiens, HSB2, 48 h): 4.76 µM

Nc1nc(N2CCN(C(=O)COc3ccc(Cl)cc3)CC2)c2nc(C3CC3)sc2n1 [Example 119, 5-amino-2-cyclopropyl-7-[4-(4-chlorophenoxyacetyl)piperazin-1-yl]-thiazolo[5,4-d]pyrimidine]
IC50 ([1]; Homo sapiens, 48 h): 3.81 µM | IC50 ([2]; Homo sapiens, HSB2, 48 h): 3.03 µM

CCCCCc1nc2c(N3CCN(C(=O)COc4ccc(Cl)cc4)CC3)nc(N)nc2o1 [Example 188, 5-amino-7-[4-(4-chlorophenoxyacetyl)piperazin-1-yl]-2-pentyloxazolo[5,4-d]pyrimidine]
IC50 ([1]; Homo sapiens, 48 h): > 10 µM | IC50 ([2]; Homo sapiens, HSB2, 48 h): > 10 µM

Nc1nc(N2CCN(C(=O)COc3cccc([N+](=O)[O-])c3)CC2)c2nc(CCc3ccc(F)cc3)sc2n1 [Example 131, 5-amino-2-[2-(4-fluorophenyl)ethyl]-7-(4-[2-(3-nitrophenoxy)acetyl]piperazin-1-yl)-thiazolo[5,4-d]pyrimidine]
IC50 ([1]; Homo sapiens, 48 h): > 10 µM | IC50 ([2]; Homo sapiens, HSB2, 48 h): > 10 µM

Nc1nc(N2CCN(C(=O)Nc3ccc(Br)cc3)CC2)c2nc(-c3ccc(F)cc3)sc2n1 [Example 218, 4-(5-amino-2-(4-fluorophenyl)thiazolo[5,4-d]pyrimidin-7-yl)-N-(4-bromophenyl)piperazine-1-carboxamide]
IC50 ([1]; Homo sapiens, 48 h): 7.35 µM | IC50 ([2]; Homo sapiens, HSB2, 48 h): 7.05 µM

CSc1nc2c(N3CCN(C(=O)COc4ccc(Cl)cc4)CC3)nc(N)nc2[nH]1 [Example 424, 1-(4-(2-amino-8-(methylthio)-9H-purin-6-yl)piperazin-1-yl)-2-(4-chlorophenoxy)ethanone]
IC50 ([1]; Homo sapiens, 48 h): 0.01 µM | IC50 ([2]; Homo sapiens, HSB2, 48 h): 4.6 µM

Nc1nc(N2CCN(C(=O)COc3ccc(Cl)cc3)CC2)c2nc(C3CC3)oc2n1 [Example 185, 5-amino-2-cyclopropyl-7-[4-(4-chlorophenoxyacetyl)piperazin-1-yl]-oxazolo[5,4-d]pyrimidine]
IC50 ([1]; Homo sapiens, 48 h): > 10 µM | IC50 ([2]; Homo sapiens, HSB2, 48 h): > 10 µM

Nc1nc(N2CCN(C(=O)COc3ccc(Cl)cc3)CC2)c2nc(SCc3ccccc3)[nH]c2n1 [Example 426, 1-(4-(2-amino-8-(benzylthio)-9H-purin-6-yl)piperazin-1-yl)-2-(4-chlorophenoxy)ethanone]
IC50 ([1]; Homo sapiens, 48 h): > 10 µM | IC50 ([2]; Homo sapiens, HSB2, 48 h): > 10 µM

Nc1nc(N2CCN(C(=O)COc3ccc(Cl)cc3)CC2)c2nc(C3(c4ccc(Cl)cc4)CC3)sc2n1 [Example 117, 5-amino-7-[4-(4-chlorophenoxyacetyl)piperazin-1-yl]-2-(1-(4-chlorophenyl)cyclopropyl)thiazolo[5,4-d]pyrimidine]
IC50 ([1]; Homo sapiens, 48 h): > 10 µM | IC50 ([2]; Homo sapiens, HSB2, 48 h): 6.28 µM

Nc1nc(N2CCN(C(=O)COc3ccccc3)CC2)c2nc(-c3ccc(F)cc3)sc2n1 [Example 130, 5-amino-2-(4-fluorophenyl)-7-(4-(2-phenoxyacetyl)-piperazin-1-yl)-thiazolo[5,4-d]pyrimidine]
IC50 ([1]; Homo sapiens, 48 h): 0.82 µM | IC50 ([2]; Homo sapiens, HSB2, 48 h): 0.57 µM

Nc1nc(N2CCN(C(=O)COc3ccc(Cl)cc3)CC2)c2nc(-c3ccc(F)cc3)[nH]c2n1 [Example 389, 1-(4-(2-amino-8-(4-fluorophenyl)-9H-purin-6-yl)piperazin-1-yl)-2-(4-chlorophenoxy)ethanone]
IC50 ([1]; Homo sapiens, 48 h): > 10 µM
